Columns and labels:
Format in all cases: in vivo
Bidens pilosa (BIDPI) = assay: herbicidal action with/without simulated rainfall after treatment, Bidens pilosa; conditions: Example 9, flumioxazin 60 g/ha, glyphosate 1080 g/ha, 0.5% v/v Dash in Flumioxazin and mixture
Procedure: (§1) The enhancement of the rainfastness of glyphosate was determined via the herbicidal activity of the mixture comprising glyphosate and the respective rainfastness enhancing herbicidal component B as well as of the single herbicidal components in relation to simulated rainfall at different time intervals.
(§2) The evaluation of the damage caused by the method and the compositions the according to the present invention and the single herbicidal components was carried out using a scale from 0 to 100%, compared to the untreated control plots. Here, 0 means no damage and 100 means complete destruction of the plants of a respective weed or crop species.
(§3) The application was performed with a fixed spayer system with air pressurization and with a tank spray volume of two liters. The speed of the spray device over the plants was adjusted for a spray volume of 200 I/ha. The spray device was a spray barr with four nozzles from the type Teejet XR 11002VS with a space of 50 cm between each nozzle.
(§4) The application was performed at a weed stage of 6 to 8 leaves. After the application of the formulated herbicides the leaves were washed through rain of 20 mm using a fixed rain simulator system at following time interval: 15 min, 30 min, 1, 2, 3, 4 and 6 hours after treatment.

[1] = test system: Brachiaria decumbens (BRADE); assay: herbicidal action with/without simulated rainfall after treatment, Brachiaria decumbens; design: key: % damage vs untreated control; 0 = no damage, 100 = complete destruction
How it was run: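 Glyphosate alone, component B alone or their mixture sprayed at 200 l/ha on weeds at the 6–8 leaf stage. Simulated rain of 20 mm applied 15 min, 30 min, 1, 2, 3, 4 or 6 h after treatment. Damage scored 0–100% against untreated controls.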

[2] = test system: Ipomoea grandifolia (IPOGR); assay: herbicidal action with/without simulated rainfall after treatment, Ipomoea grandifolia; conditions: Example 10, flumioxazin 60 g/ha, glyphosate 1080 g/ha, 0.5% v/v Dash in Flumioxazin and mixture
Procedure: as §1, §2, §3, §4

[3] = simulated rainfall 15 min after treatment, 1 DAA
[4] = simulated rainfall 15 min after treatment, 2 DAA
[5] = simulated rainfall 15 min after treatment, 3 DAA
[6] = simulated rainfall 15 min after treatment, 7 DAA
[7] = simulated rainfall 2 hours after treatment, 1 DAA
[8] = simulated rainfall 2 hours after treatment, 2 DAA
[9] = simulated rainfall 2 hours after treatment, 3 DAA
[10] = simulated rainfall 2 hours after treatment, 7 DAA
[11] = without simulated rainfall, 1 DAA
[12] = without simulated rainfall, 2 DAA
[13] = without simulated rainfall, 3 DAA
[14] = without simulated rainfall, 7 DAA

C#CCN1C(=O)COc2cc(F)c(N3C(=O)C4=C(CCCC4)C3=O)cc21 [Flumioxazin, flumioxazin]
herbicidal action against BIDPI (Bidens pilosa (BIDPI); [3]): 51% | herbicidal action against BIDPI (Bidens pilosa (BIDPI); [4]): 59.66% | herbicidal action against BIDPI (Bidens pilosa (BIDPI); [5]): 64% | herbicidal action against BIDPI (Bidens pilosa (BIDPI); [6]): 69% | herbicidal action against BIDPI (Bidens pilosa (BIDPI); simulated rainfall 30 min after treatment, 1 DAA): 63.66% | herbicidal action against BIDPI (Bidens pilosa (BIDPI); simulated rainfall 30 min after treatment, 2 DAA): 63% | herbicidal action against BIDPI (Bidens pilosa (BIDPI); simulated rainfall 30 min after treatment, 3 DAA): 82% | herbicidal action against BIDPI (Bidens pilosa (BIDPI); simulated rainfall 30 min after treatment, 7 DAA): 78.33% | herbicidal action against BIDPI (Bidens pilosa (BIDPI); [7]): 72.33% | herbicidal action against BIDPI (Bidens pilosa (BIDPI); [8]): 86.66% | herbicidal action against BIDPI (Bidens pilosa (BIDPI); [9]): 91.66% | herbicidal action against BIDPI (Bidens pilosa (BIDPI); [10]): 96.66% | herbicidal action against BIDPI (Bidens pilosa (BIDPI); simulated rainfall 6 hours after treatment, 1 DAA): 66.66% | herbicidal action against BIDPI (Bidens pilosa (BIDPI); simulated rainfall 6 hours after treatment, 2 DAA): 84% | herbicidal action against BIDPI (Bidens pilosa (BIDPI); simulated rainfall 6 hours after treatment, 3 DAA): 91.33% | herbicidal action against BIDPI (Bidens pilosa (BIDPI); simulated rainfall 6 hours after treatment, 7 DAA): 92.66% | herbicidal action against BIDPI (Bidens pilosa (BIDPI); [11]): 80% | herbicidal action against BIDPI (Bidens pilosa (BIDPI); [12]): 92% | herbicidal action against BIDPI (Bidens pilosa (BIDPI); [13]): 98% | herbicidal action against BIDPI (Bidens pilosa (BIDPI); [14]): 98.66% | herbicidal action against BRADE ([1]; Example 11, simulated rainfall 15 min after treatment, 1 DAA, flumioxazin 60 g/ha, glyphosate 1080 g/ha, 0.5% v/v Dash in Flumioxazin and mixture): 28.33% | herbicidal action against BRADE ([1]; Example 11, simulated rainfall 15 min after treatment, 2 DAA, flumioxazin 60 g/ha, glyphosate 1080 g/ha, 0.5% v/v Dash in Flumioxazin and mixture): 64.66% | herbicidal action against BRADE ([1]; Example 11, simulated rainfall 15 min after treatment, 3 DAA, flumioxazin 60 g/ha, glyphosate 1080 g/ha, 0.5% v/v Dash in Flumioxazin and mixture): 80% | herbicidal action against BRADE ([1]; Example 11, simulated rainfall 15 min after treatment, 7 DAA, flumioxazin 60 g/ha, glyphosate 1080 g/ha, 0.5% v/v Dash in Flumioxazin and mixture): 82.33% | herbicidal action against BRADE ([1]; Example 11, simulated rainfall 30 min after treatment, 1 DAA, flumioxazin 60 g/ha, glyphosate 1080 g/ha, 0.5% v/v Dash in Flumioxazin and mixture): 22.33% | herbicidal action against BRADE ([1]; Example 11, simulated rainfall 30 min after treatment, 2 DAA, flumioxazin 60 g/ha, glyphosate 1080 g/ha, 0.5% v/v Dash in Flumioxazin and mixture): 53.66% | herbicidal action against BRADE ([1]; Example 11, simulated rainfall 30 min after treatment, 3 DAA, flumioxazin 60 g/ha, glyphosate 1080 g/ha, 0.5% v/v Dash in Flumioxazin and mixture): 76% | herbicidal action against BRADE ([1]; Example 11, simulated rainfall 30 min after treatment, 7 DAA, flumioxazin 60 g/ha, glyphosate 1080 g/ha, 0.5% v/v Dash in Flumioxazin and mixture): 76.66% | herbicidal action against BRADE ([1]; Example 11, without simulated rainfall, 1 DAA, flumioxazin 60 g/ha, glyphosate 1080 g/ha, 0.5% v/v Dash in Flumioxazin and mixture): 14.66% | herbicidal action against BRADE ([1]; Example 11, without simulated rainfall, 2 DAA, flumioxazin 60 g/ha, glyphosate 1080 g/ha, 0.5% v/v Dash in Flumioxazin and mixture): 41% | herbicidal action against BRADE ([1]; Example 11, without simulated rainfall, 3 DAA, flumioxazin 60 g/ha, glyphosate 1080 g/ha, 0.5% v/v Dash in Flumioxazin and mixture): 42.66% | herbicidal action against BRADE ([1]; Example 11, without simulated rainfall, 7 DAA, flumioxazin 60 g/ha, glyphosate 1080 g/ha, 0.5% v/v Dash in Flumioxazin and mixture): 51% | herbicidal action against BRADE ([1]; simulated rainfall 2 hours after treatment, 1 DAA, Example 11.4): 16.33 | herbicidal action against BRADE ([1]; simulated rainfall 2 hours after treatment, 2 DAA, Example 11.4): 50.66 | herbicidal action against BRADE ([1]; simulated rainfall 2 hours after treatment, 3 DAA, Example 11.4): 65 | herbicidal action against BRADE ([1]; simulated rainfall 2 hours after treatment, 7 DAA, Example 11.4): 80 | herbicidal action against BRADE ([1]; simulated rainfall 6 hours after treatment, 1 DAA, Example 11.5): 21.66 | herbicidal action against BRADE ([1]; simulated rainfall 6 hours after treatment, 2 DAA, Example 11.5): 44.33 | herbicidal action against BRADE ([1]; simulated rainfall 6 hours after treatment, 3 DAA, Example 11.5): 63.33 | herbicidal action against BRADE ([1]; simulated rainfall 6 hours after treatment, 7 DAA, Example 11.5): 65 | herbicidal action against IPOGR [2, 3]: 20.33% | herbicidal action against IPOGR [2, 4]: 75% | herbicidal action against IPOGR [2, 5]: 82.33% | herbicidal action against IPOGR [2, 6]: 98.33% | herbicidal action against IPOGR ([2]; simulated rainfall 15 min after treatment, 14 DAA): 90% | herbicidal action against IPOGR [2, 7]: 24.66% | herbicidal action against IPOGR [2, 8]: 80% | herbicidal action against IPOGR [2, 9]: 94.33% | herbicidal action against IPOGR [2, 10]: 99.66% | herbicidal action against IPOGR ([2]; simulated rainfall 2 hours after treatment, 14 DAA): 100% | herbicidal action against IPOGR [2, 11]: 19.33% | herbicidal action against IPOGR [2, 12]: 93.66% | herbicidal action against IPOGR [2, 13]: 98% | herbicidal action against IPOGR [2, 14]: 98.66% | herbicidal action against IPOGR ([2]; without simulated rainfall, 14 DAA): 97.66%
